Source: patent US5141930A, “Fused thiophene compounds and uses thereof” (Yoshitomi Pharmaceutical Industries, Ltd., priority 1990, dated 1992)
Counter-ions that a name gives are not always drawn.

Experiments:
[1] = target: T1, serotonin 1A (5-HT1A) receptor (Rattus norvegicus, UniProt P19327); assay: Affinity for serotonin 1A (5-HT1A) receptor, 3H-8-OH-DPAT binding test; conditions: rat hippocampus, 0.2 nM 3H-8-OH-DPAT, pH 7.4, 37° C., 10 min
T1 sequence (P19327 1-422): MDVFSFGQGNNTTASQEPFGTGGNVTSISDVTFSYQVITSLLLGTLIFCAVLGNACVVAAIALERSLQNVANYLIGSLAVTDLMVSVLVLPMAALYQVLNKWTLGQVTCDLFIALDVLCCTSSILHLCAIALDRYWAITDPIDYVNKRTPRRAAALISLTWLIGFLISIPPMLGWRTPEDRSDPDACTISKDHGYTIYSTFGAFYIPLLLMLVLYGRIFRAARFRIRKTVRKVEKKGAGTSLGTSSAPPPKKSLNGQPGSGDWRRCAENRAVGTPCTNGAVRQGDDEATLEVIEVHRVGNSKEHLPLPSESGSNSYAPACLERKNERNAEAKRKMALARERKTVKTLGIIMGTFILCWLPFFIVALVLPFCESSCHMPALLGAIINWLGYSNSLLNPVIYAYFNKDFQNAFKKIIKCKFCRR
Protocol: Affinity for serotonin 1A (5-HT1A) receptor [^3 H-8-Hydroxy-2-dipropylaminotetralin (^3 H-8-OH-DPAT) binding test]
Preparation of crude synaptosome fraction and binding assay were conducted in accordance with the method reported in Journal of Neurochemistry, vol. 44, page 1685, 1985 by Hall et al. Freezed hippocampus dissected out from rats were homogenized in 40 volumes of ice-cold 50 mM Tris-HCl buffer (pH 7.4) and the suspension was centrifuged at 500×g for 10 minutes at 0° C. The supernatant was centrifuged at 40,000×g for 20 minutes at 0° C. and the resulting pellet was homogenized in 40 volumes of the above buffer and incubated at 37° C. for 10 minutes. After completion of reaction, the suspension was centrifuged at 40,000×g for 20 minutes at 0° C. The resulting pellet was washed twice by resuspension in 40 volumes of the above buffer and centrifugation, and finally suspended in 60 volumes of ice-cold 50 mM Tris-HCl buffer (pH 7.4) containing 1 mM manganese chloride for use in the next assay.
To the aliquots (900 μl) of synaptosome membranes solution were added 50 μl of tritiated 8-OH-DPAT solution at the terminal concentration of 0.2 nM and 50 μl of test compound solution or 50 μl of its medium, and incubated at 37° C. for 10 minutes. Then, to the mixture was added 5 ml of ice-cold 50 mM Tris-HCl buffer (pH 7.4), rapidly vacuum-filtered through Whatman GF/B filters and washed twice with 5 ml of the same buffer. The radioactivity of the residue remaining on the filters was measured by liquid scintillation counter. Nonspecific binding was determined under the presence of 10^-5 M serotonin (5-HT). 50% Inhibition concentration (IC50) of the test compound was graphically determined and the inhibition constant (Ki value) was calculated.

Wistar rats = assay: Anxiolytic effect (Vogel type conflict test); type: in vivo; conditions: Rattus norvegicus, po; orally 1 hour before test; lowest dose significantly different from 0.5% MC control, P<0.05; read-out: Anxiolytic effect MED (minimum effective dose)
Protocol: Anxiolytic effect (Vogel type conflict test) The test was conducted according to the method of Vogel et al. Wistar rats deprived of water for 72 hours before the test were used. The rats were placed in a plexiglas conflict test box (light compartment: 38×38×20 cm, dark compartment: 10×10×20 cm). A water bottle with a stainless steel spout was fitted to the middle of the outside, so that the spout extended 3 cm into the box at a height of 10 cm above the grid floor. A drinkometer circuit (Ohara Inc., Nihon Koden) was connected with the spout and the number of licks were counted. The rat was placed into the apparatus where an electric shock (0.2-0.3 mA, 0.3 sec) was given once every 20th lick. After the rat received first electric shock, the number of shocks were recorded during the subsequent 3 min. test period. The test compounds were administered orally 1 hour before the test. The minimum effective dose (MED) was defined as the lowest dose producing a statistically significant difference between 0.5% MC-treated (control) and test drug treated punished responses (One-way ANOVA test; P<0.05).

dopamine 2 (D2) receptor = dopamine 2 (D2) receptor (Rattus norvegicus, UniProt P61169); assay: Affinity for dopamine 2 (D2) receptor, 3H-Spiperone binding test; conditions: rat corpus striatum, 0.2 nM 3H-Spiperone, pH 7.1, 37° C., 20 min
[2] = target: T2, serotonin 2 (5-HT2) receptor (Rattus norvegicus, UniProt P14842); assay: Affinity for serotonin 2 (5-HT2) receptor, 3H-Ketanserin binding test; conditions: rat cerebral cortex, 0.2 nM 3H-Ketanserin, pH 7.7, 37° C., 20 min
T2 construct: Freezed cerebral cortex dissected out from rats were homogenized; from tissue; host or cells: rat cerebral cortex, crude synaptosome fraction
Protocol: Affinity for serotonin 2 (5-HT2) receptor (^3 H-Ketanserin binding test)
Preparation of crude synaptosome fraction and binding assay were conducted according to the method reported in Molecular Pharmacology, vol. 21, page 301, 1981 by Leysen et al.
Freezed cerebral cortex dissected out from rats were homogenized in 30 volumes of ice-cold 0.32 M sucrose solution and the suspension was centrifuged at 1000×g for 10 minutes at 10° C. The supernatant was centrifuged at 40,000×g for 20 minutes at 0° C. and the resulting pellet was homogenized in 30 volumes of ice-cold 50 mM Tris-HCl buffer (pH 7.7), and incubated at 37° C. for 10 minutes. The suspension was centrifuged at 40,000×g for 20 minutes at 0° C. again. The resulting pellet was homogenized in 100 volumes of the above buffer and provided as synaptosome membranes solution for the next assay.
To the aliquots (900 μl) of synaptosome membranes solution were added 50 μl of ^3 H-Ketanserin solution at the terminal concentration of 0.2 nM and 50 μl of test compound solution or 50 μl of its medium, and incubated at 37° C. for 20 minutes. After completion of the reaction, the mixture was rapidly vacuum-filtered through Whatman GF/B filters. The filters were washed three times with 5 ml of the above buffer, and then the radioactivity of the residue remaining on the filters was measured by liquid scintillation counter. Nonspecific binding was determined under the presence of 10 μM of mianserin. 50% Inhibition concentration (IC50) of the test compound was graphically determined and the inhibition constant (Ki value) was calculated.

serotonin 1A receptor [3] = conditions: by an interaction with serotonin 1A receptor; cited from earlier work
serotonin 1A receptor [4] = conditions: background statement; cited from earlier work
benzodiazepine receptor = conditions: background statement; cited from earlier work
[5] = test system: serotonin 1A receptor of medulla oblongata; conditions: through serotonin 1A receptor of medulla oblongata; cited from earlier work

T2 sequence (P14842 whole entry): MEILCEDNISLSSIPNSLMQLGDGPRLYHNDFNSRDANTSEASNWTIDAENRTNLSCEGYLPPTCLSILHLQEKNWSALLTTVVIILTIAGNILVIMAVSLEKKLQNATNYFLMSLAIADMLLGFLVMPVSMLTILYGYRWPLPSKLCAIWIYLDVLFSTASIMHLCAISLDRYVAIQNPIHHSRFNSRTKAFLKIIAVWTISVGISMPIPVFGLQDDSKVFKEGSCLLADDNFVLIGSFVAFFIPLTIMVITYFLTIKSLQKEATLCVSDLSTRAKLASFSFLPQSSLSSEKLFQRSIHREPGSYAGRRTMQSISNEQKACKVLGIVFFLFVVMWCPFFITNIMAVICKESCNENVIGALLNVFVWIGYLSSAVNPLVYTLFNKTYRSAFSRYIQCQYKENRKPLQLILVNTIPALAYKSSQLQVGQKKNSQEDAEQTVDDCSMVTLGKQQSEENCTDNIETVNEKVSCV
dopamine 2 (D2) receptor, sequence (P61169 whole entry): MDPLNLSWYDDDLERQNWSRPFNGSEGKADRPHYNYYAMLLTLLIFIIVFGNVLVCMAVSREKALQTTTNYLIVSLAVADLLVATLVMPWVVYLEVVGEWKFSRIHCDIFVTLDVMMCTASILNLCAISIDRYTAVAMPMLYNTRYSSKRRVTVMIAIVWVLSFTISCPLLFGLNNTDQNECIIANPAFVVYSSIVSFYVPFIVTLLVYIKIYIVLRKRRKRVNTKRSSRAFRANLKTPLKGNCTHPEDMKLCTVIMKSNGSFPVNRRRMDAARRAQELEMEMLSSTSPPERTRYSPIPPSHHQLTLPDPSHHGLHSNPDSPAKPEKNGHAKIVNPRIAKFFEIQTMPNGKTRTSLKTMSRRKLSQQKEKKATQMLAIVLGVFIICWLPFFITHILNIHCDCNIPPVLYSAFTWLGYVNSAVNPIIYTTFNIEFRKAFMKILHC

| Compound | Ki [1] [nM] | Ki (dopamine 2 (D2) receptor) [nM] | Ki [2] [nM] | minimal effective dose (Wistar rats) [mg/kg] | antianxietic action (serotonin 1A receptor [3]) | affinity for serotonin 1A receptor (serotonin 1A receptor [4]) | binding to benzodiazepine receptor (benzodiazepine receptor) | effect on blood pressure [5] |
| --- | --- | --- | --- | --- | --- | --- | --- | --- |
| CC(O)c1cc2c(s1)CCCN(CCCCN1CCN(c3ncccn3)CC1)C2=O.O=C(O)/C=C\C(=O)O (centres unmarked) [Example 155, 2-(1-Hydroxyethyl)-5-[4-(4-(2-pyrimidinyl)-1-piperazinyl)butyl]-5,6,7,8-tetrahydro-4H-thieno[3,2-c]azepin-4-one maleate] | 0.81 | 170 | 2100 | 2.5 | – | – | – | – |
| Cc1cc2c(s1)CCCN(CCCCNCC1COc3ccccc3O1)C2=O.Cl (centres unmarked) [Example 163, 5-[4-((1,4-Benzodioxan-2-yl)methylamino)butyl]-2-methyl-5,6,7,8-tetrahydro-4H-thieno[3,2-c]azepin-4-one hydrochloride] | 0.15 | 6.2 | 1200 | 2.5 | – | – | – | – |
| CCc1cc2c(s1)CCCN(CCCCN1CCN(c3ncccn3)CC1)C2=O.O=C(O)/C=C/C(=O)O [Example 46, 2-ethyl-5-[4-(4-(2-pyrimidinyl)-1-piperazinyl)butyl]-5,6,7,8-tetrahydro-4H-thieno[3,2-c]azepin-4-one fumarate] | 1.3 | 78 | 990 | ≤ 1 | – | – | – | – |
| O=C1CC2(CCCC2)CC(=O)N1CCCCN1CCN(c2ncccn2)CC1 [buspirone] | – | – | – | – | exhibits antianxietic action | high affinity | not to bind | – |
| CCCN(CCC)C1CCc2cccc(O)c2C1 (centres unmarked) [8-hydroxy-2-dipropylaminotetralin] | – | – | – | – | – | high affinity | – | lowers blood pressure |

Continued, in another order:

| Ki [1] [nM] | Ki (dopamine 2 (D2) receptor) [nM] | Ki [2] [nM] | Compound | minimal effective dose (Wistar rats) [mg/kg] | antianxietic action (serotonin 1A receptor [3]) | affinity for serotonin 1A receptor (serotonin 1A receptor [4]) | binding to benzodiazepine receptor (benzodiazepine receptor) | effect on blood pressure [5] |
| --- | --- | --- | --- | --- | --- | --- | --- | --- |
| 2.1 | 140 | 1500 | Cc1cc2c(s1)CCCN(CCCCN1CCN(c3ncccn3)CC1)C2=O [15 (hydrochloride)] | 2.5 | – | – | – | – |
| 1.6 | 190 | 1400 | CC(=O)c1cc2c(s1)CCCN(CCCCN1CCN(c3ncccn3)CC1)C2=O [13 (maleate)] | 1 | – | – | – | – |
| 1.5 | 120 | 990 | O=C1c2cc(Br)sc2SCCN1CCCCN1CCN(c2ncccn2)CC1 [Example 107, 7-bromo-2,3-dihydro-4-[4-(4-(2-pyrimidinyl)-1-piperazinyl)butyl]thieno[3,2-f]-1,4-thiazepin-5(4H)-one fumarate 1/2 hydrate] | – | – | – | – | – |
| 4.1 | 270 | 1800 | CC(=O)c1cc2c(s1)SCCN(CCCCN1CCN(c3ncccn3)CC1)C2=O [Example 117, 7-acetyl-2,3-dihydro-4-[4-(4-(2-pyrimidinyl)-1-piperazinyl)butyl]thieno[3,2-f]-1,4-thiazepin-5(4H)-one] | 5 | – | – | – | – |
| 1.4 | 150 | 1100 | CCc1cc2c(s1)SCCN(CCCCN1CCN(c3ncccn3)CC1)C2=O [Example 121, 7-ethyl-2,3-dihydro-4-[4-(4-(2-pyrimidinyl)-1-piperazinyl)thieno[3,2-f]-1,4-thiazepin-5(4H)-one hydrochloride 3/2 hydrate] | – | – | – | – | – |
| 0.89 | 100 | 900 | O=C1c2cc(Br)sc2CCCN1CCCCN1CCN(c2ncccn2)CC1 [Example 11, 2-Bromo-5-[4-(4-(2-pyrimidinyl)-1l-piperazinyl)butyl]-5,6,7,8-tetrahydro-4H-thieno[3,2-c]azepin-4-one fumarate] | – | – | – | – | – |
| 5.2 | 1800 | 1800 | O=C1c2ccsc2SCCN1CCCCN1CCN(c2ncccn2)CC1 [Example 103, 2,3-dihydro-4-[4-(4-(2-pyrimidinyl)-1-piperazinyl)butyl]thieno[3,2-f]-1,4-thiazepin-5( (4H)-one fumarate] | – | – | – | – | – |
